One test has as its target SARS-CoV-2 M^Pro (Severe acute respiratory syndrome coronavirus 2, UniProt P0DTD1). The test is described as follows: biochemical. It counts as biochemical.
Details: not given
Broadly, the IC50 is the concentration that inhibits the measured activity by half. `CC(C)C[C@H](NC(=O)OCc1ccccc1)C(=O)NN(CCC(N)=O)C(=O)Oc1ccc(F)cc1` [MPI47, 4-fluorophenyl 1-(3-amino-3-oxopropyl)-2-(((benzyloxy)carbonyl)-L-leucyl)hydrazine-1-carboxylate]: the IC50 was found to be 1040 nM.

The molecule `CC(C)C[C@H](NC(=O)OCc1ccccc1)C(=O)NN(CCC(N)=O)C(=O)OCC(F)(F)F` [MPI46, 2,2,2-trifluoroethyl 1-(3-amino-3-oxopropyl)-2-(((benzyloxy)carbonyl)-L-leucyl)hydrazine-1-carboxylate] came in with an IC50 of more than 10000 nM.

Regarding `C=CC(=O)N(CCC(N)=O)NC(=O)[C@H](CC(C)C)NC(=O)[C@@H](NC(=O)OCc1ccccc1)[C@@H](C)OC(C)(C)C` [MPI50, benzyl ((2S,3R)-1-(((S)-1-(2-acryloyl-2-(3-amino-3-oxopropyl)hydrazineyl)-4-methyl-1-oxopentan-2-yl)amino)-3-(tert-butoxy)-1-oxobutan-2-yl)carbamate], the IC50 was determined as 109 nM.

The molecule `CC1(C)[C@@H]2[C@@H](C(=O)N[C@H](C=O)C[C@@H]3CCNC3=O)N(C(=O)[C@H](Cc3ccccc3)NC(=O)OCc3ccccc3)C[C@@H]21` [MPI94, benzyl ((S)-1-((1R,2S,5S)-6,6-dimethyl-2-(((S)-1-oxo-3-((S)-2-oxopyrrolidin-3-yl)propan-2-yl)carbamoyl)-3-azabicyclo[3.1.0]hexan-3-yl)-1-oxo-3-phenylpropan-2-yl)carbamate] yielded an IC50 of 267 ± 44 nM.

Staying with this test, now noted: 20 nM enzyme (10 nM for MPI3), 10 μM substrate, 37° C., 30 min enzyme-inhibitor incubation.
For `CC(C)[C@H](NC(=O)OCc1ccccc1)C(=O)N[C@@H](Cc1cccs1)C(=O)N[C@H](C=O)C[C@@H]1CCNC1=O` [MPI13, Benzyl ((S)-3-methyl-1-oxo-1-(((S)-1-oxo-1-(((S)-1-oxo-3-((S)-2-oxopyrrolidin-3-yl)propan-2-yl)amino)-3-(thiophen-2-yl)propan-2-yl)amino)butan-2-yl)carbamate], the “Enzymatic IC50” value is “(insoluble)”.

The same test, now with this note: read-out: Enzymatic IC50.
As to `C[C@@H](OC(C)(C)C)[C@H](NC(=O)OCc1ccccc1)C(=O)N[C@@H](CC1CCCCC1)C(=O)N[C@@H](C[C@@H]1CCNC1=O)C(=O)C(N)=O` [MPI86, benzyl ((2S,3R)-1-(((S)-1-(((S)-4-amino-3,4-dioxo-1-((S)-2-oxopyrrolidin-3-yl)butan-2-yl)amino)-3-cyclohexyl-1-oxopropan-2-yl)amino)-3-(tert-butoxy)-1-oxobutan-2-yl)carbamate], the IC50 was 167 ± 14 nM.

As for `CC(C)C[C@H](NC(=O)OCc1ccccc1)C(=O)NN(CCC(N)=O)C(=O)[C@H](C)Cl` [MPI40, benzyl ((S)-1-(2-(3-amino-3-oxopropyl)-2-((S)-2-chloropropanoyl)hydrazineyl)-4-methyl-1-oxopentan-2-yl)carbamate], the IC50 amounted to 1620 ± 153 nM.

On to `C=CC(=O)N(C[C@@H]1CCC(=O)N1)NC(=O)[C@@H]1[C@@H]2[C@H](CN1C(=O)[C@@H](NC(=O)NC(C)(C)C)[C@@H](C)OC(C)(C)C)C2(C)C` [MPI69, 1-((2S,3R)-1-((1R,2S,5S)-2-(2-acryloyl-2-(((S)-5-oxopyrrolidin-2-yl)methyl)hydrazine-1-carbonyl)-6,6-dimethyl-3-azabicyclo[3.1.0]hexan-3-yl)-3-(tert-butoxy)-1-oxobutan-2-yl)-3-(tert-butyl)urea], for which the IC50 is more than 2000 nM.

Take `C=CC(=O)N(CCC(N)=O)NC(=O)[C@@H]1[C@@H]2[C@H](CN1C(=O)[C@@H](NC(=O)NC(C)(C)C)[C@@H](C)OC(C)(C)C)C2(C)C` [MPI70, 3-(1-acryloyl-2-((1R,2S,5S)-3-(O-(tert-butyl)-N-(tert-butylcarbamoyl)-L-threonyl)-6,6-dimethyl-3-azabicyclo[3.1.0]hexane-2-carbonyl)hydrazineyl)propanamide]: the IC50 came out at 136 ± 17 nM.

Turning to `C[C@@H](OC(C)(C)C)[C@H](NC(=O)OCc1ccccc1)C(=O)N[C@@H](CC1CCCCC1)C(=O)N[C@@H](C[C@@H]1CCNC1=O)C(O)S(=O)(=O)O` (stereo partly drawn) [MPI65, sodium (5S,8S,11S)-5-((R)-1-(tert-butoxy)ethyl)-8-(cyclohexylmethyl)-12-hydroxy-3,6,9-trioxo-11-(((S)-2-oxopyrrolidin-3-yl)methyl)-1-phenyl-2-oxa-4,7,10-triazadodecane-12-sulfonate], the IC50 is 294 ± 15 nM.

With `C[C@@H](OC(C)(C)C)[C@H](NC(=O)NC(C)(C)C)C(=O)N1C[C@H]2[C@@H]([C@H]1C(=O)N[C@H](C=O)C[C@@H]1CCNC1=O)C2(C)C` [MPI68, (1R,2S,5S)-3-(O-(tert-butyl)-N-(tert-butylcarbamoyl)-L-threonyl)-6,6-dimethyl-N-((S)-1-oxo-3-((S)-2-oxopyrrolidin-3-yl)propan-2-yl)-3-azabicyclo[3.1.0]hexane-2-carboxamide], the IC50 was 97 nM.

For `C=CC(=O)N(CCC(N)=O)NC(=O)[C@H](CC1CCCCC1)NC(=O)[C@@H](NC(=O)OCc1ccccc1)[C@@H](C)OC(C)(C)C` [MPI52, benzyl ((2S,3R)-1-(((S)-1-(2-acryloyl-2-(3-amino-3-oxopropyl)hydrazineyl)-3-cyclohexyl-1-oxopropan-2-yl)amino)-3-(tert-butoxy)-1-oxobutan-2-yl)carbamate], the IC50 worked out at 61 ± 1.2 nM.

With `CC(C)[C@H](NC(=O)NC(C)(C)C)C(=O)N[C@@H](CC1CC1)C(=O)N[C@H](C=O)C[C@@H]1CCNC1=O` [MPI64, (S)-2-(3-(tert-butyl)ureido)-N-((S)-3-cyclopropyl-1-oxo-1-(((S)-1-oxo-3-((S)-2-oxopyrrolidin-3-yl)propan-2-yl)amino)propan-2-yl)-3-methylbutanamide], the IC50 was 26.1 ± 1.4 nM.

Turning to `CC(C)C[C@H](NC(=O)OCc1ccccc1)C(=O)NN(CCC(N)=O)C(=O)[C@@H](C)Cl` [MPI39, benzyl ((S)-1-(2-(3-amino-3-oxopropyl)-2-((R)-2-chloropropanoyl)hydrazineyl)-4-methyl-1-oxopentan-2-yl)carbamate], the IC50 came to 5038 ± 13 nM.

As for `CC(C)C[C@H](NC(=O)OCc1ccccc1)C(=O)NN(CCC(N)=O)C(=O)COc1ccc(F)cc1` [MPI45, benzyl (S)-(1-(2-(3-amino-3-oxopropyl)-2-(2-(4-fluorophenoxy)acetyl)hydrazineyl)-4-methyl-1-oxopentan-2-yl)carbamate], the IC50 was more than 10000 nM.

With `CC(C)C[C@H](NC(=O)OCc1ccccc1)C(=O)NN(CCC(N)=O)C(=O)COc1ccc([N+](=O)[O-])cc1` [MPI44, benzyl (S)-(1-(2-(3-amino-3-oxopropyl)-2-(2-(4-nitrophenoxy)acetyl)hydrazineyl)-4-methyl-1-oxopentan-2-yl)carbamate], the IC50 was more than 10000 nM.

`C=CC(=O)N(CCC(N)=O)NC(=O)[C@H](CC(C)C)NC(=O)OCc1ccccc1` [MPI38, benzyl (S)-(1-(2-acryloyl-2-(3-amino-3-oxopropyl)hydrazineyl)-4-methyl-1-oxopentan-2-yl)carbamate]: the IC50 came out at 640 nM.

As to `CC(C)(C)NC(=O)N[C@H](C(=O)N1C[C@H]2[C@@H]([C@H]1C(=O)N[C@@H](C[C@@H]1CCNC1=O)C(=O)C(=O)NCc1ccccc1)C2(C)C)C(C)(C)C` [MPI63, (1R,2S,5S)-N-((S)-4-(benzylamino)-3,4-dioxo-1-((S)-2-oxopyrrolidin-3-yl)butan-2-yl)-3-((S)-2-(3-(tert-butyl)ureido)-3,3-dimethylbutanoyl)-6,6-dimethyl-3-azabicyclo[3.1.0]hexane-2-carboxamide], the IC50 worked out at 103 ± 1.5 nM.

Turning to `CC(C)C[C@H](NC(=O)OCc1ccccc1)C(=O)NN(CCC(N)=O)C(=O)/C=C/CN(C)C` [MPI43, benzyl (S,E)-(1-(2-(3-amino-3-oxopropyl)-2-(4-(dimethylamino)but-2-enoyl)hydrazineyl)-4-methyl-1-oxopentan-2-yl)carbamate], the IC50 was more than 10000 nM.

For `CC(C)C[C@H](NC(=O)OCc1ccccc1)C(=O)NN(CCC(N)=O)C(=O)c1cc([N+](=O)[O-])ccc1F` [MPI41, benzyl (S)-(1-(2-(3-amino-3-oxopropyl)-2-(2-fluoro-5-nitrobenzoyl)hydrazineyl)-4-methyl-1-oxopentan-2-yl)carbamate], the IC50 came to 39000 nM.

For the molecule `CC(C)C[C@H](NC(=O)[C@@H](NC(=O)OCc1ccccc1)C(C)C)C(=O)N[C@@H](C[C@@H]1CCNC1=O)C(O)C#N` (stereo partly drawn) [MPI66, benzyl ((2S)-1-(((2S)-1-(((2S)-1-cyano-1-hydroxy-3-((S)-2-oxopyrrolidin-3-yl)propan-2-yl)amino)-4-methyl-1-oxopentan-2-yl)amino)-3-methyl-1-oxobutan-2-yl)carbamate], the IC50 stood at 18.8 ± 0.8 nM.

Consider `C[C@@H](OC(C)(C)C)[C@H](NC(=O)OCc1ccccc1)C(=O)N[C@@H](CC1CCCCC1)C(=O)NN(CCC(N)=O)C(=O)CCl` [MPI53, benzyl ((2S,3R)-1-(((S)-1-(2-(3-amino-3-oxopropyl)-2-(2-chloroacetyl)hydrazineyl)-3-cyclohexyl-1-oxopropan-2-yl)amino)-3-(tert-butoxy)-1-oxobutan-2-yl)carbamate], for which the IC50 came to 189 nM.

On to `CC(C)C[C@H](NC(=O)OCc1ccccc1)C(=O)NN(CCC(N)=O)C(=O)CCl` [MPI37, benzyl (S)-(1-(2-(3-amino-3-oxopropyl)-2-(2-chloroacetyl)hydrazineyl)-4-methyl-1-oxopentan-2-yl)carbamate], for which the IC50 worked out at 64 nM.

`C=CC(=O)N(Cc1cc(=O)[nH]c(=O)[nH]1)NC(=O)[C@H](CC(C)C)NC(=O)[C@@H](NC(=O)OCc1ccccc1)C(C)C` [MPI35, benzyl ((S)-1-(((S)-1-(2-acryloyl-2-((2,6-dioxo-1,2,3,6-tetrahydropyrimidin-4-yl)methyl)hydrazineyl)-4-methyl-1-oxopentan-2-yl)amino)-3-methyl-1-oxobutan-2-yl)carbamate]: the IC50 worked out at 4280 ± 278 nM.

Consider `C[C@@H](OC(C)(C)C)[C@H](NC(=O)OCc1cccc(F)c1)C(=O)N[C@@H](CC1CCCCC1)C(=O)N[C@H](C=O)C[C@@H]1CCNC1=O` [MPI102, 3-fluorobenzyl ((2S,3R)-3-(tert-butoxy)-1-(((S)-3-cyclohexyl-1-oxo-1-(((S)-1-oxo-3-((S)-2-oxopyrrolidin-3-yl)propan-2-yl)amino)propan-2-yl)amino)-1-oxobutan-2-yl)carbamate], for which the IC50 came to 307 nM.

Source of the values: patent publication US20230212116A1, “SARS-COV-2 MAIN PROTEASE INHIBITORS” (TEXAS A&M UNIVERSITY SYSTEM, priority 2020, published 2023).
